Where no end group is shown, it is not given here.
Experiments:
[1] = system: rat bone marrow mesenchymal stem cells (rBMSCs); test: Preliminary study: chondroinductivity with rBMSCs by rt-PCR; type: cell-based; conditions: 100 ng/ml in medium, 3 days, p<0.05
Description: In a preliminary study, the chondroinductivities of Link N peptide (SEQ ID NO: 9, Table 2) and SPPEPS (SEQ ID NO:2) with rBMSCs were evaluated at two plate coating densities (0.5 and 1 μg/mm2) and two soluble concentrations (10 and 100 ng/mL) after 3 days by rt-PCR (n=3). For rBMSCs cultured on TCT plates the chondroinductivity was compared with negative control (no growth factor or peptide in the cell culture medium) and positive control group. The positive control was a known chondrogenic growth factor in lieu of the SPPEPS (SEQ ID NO:2) peptide, i.e., 10 ng/ml (dissolved in rBMSCs cell culture medium) human transforming growth factor-β3 (TGF-β3, R&D systems, Minneapolis, MN).
The gene expressions were analyzed for all the rBMSCs samples cultured on the TCT plates after 3 days (n=6) and all the rBMSCs cultured on the hydrogel surface after 3 days (n=4). The gene expressions of each sample were evaluated in triplicate. […] GAPDH was used as an endogenous control, with relative gene expression measured using the 2^−ΔΔCt method. […]

rBMSC spheroids = test: Collagen II gene expression of rBMSC spheroids (SPPEPS vs TGF-β3); type: cell-based, rat; conditions: 100 ng/ml SPPEPS; normoxic and hypoxic; n=5
Description: Collagen II gene expression with control (no supplement), TGF-β3, or SPPEPS (1, 100 ng/ml). Hypoxic bars are righthand, normoxic bars are lefthand. n=5, p<0.05 difference from αnormoxic control, βhypoxic control, *normoxic counterpart, SSPPEPS (SEQ ID NO: 2) 1 ng/ml, #normoxic TGF-β3,!all groups.

[2] = system: rat bone marrow mesenchymal stem cells (rBMSCs); test: Gene expression (rt-PCR) of rBMSCs on TCT plates, SPPEPS coated or in medium; type: cell-based
Description: In one set of experimental groups, the SPPEPS (SEQ ID NO:2) peptide was adsorbed to the well plate surface. The peptide was dissolved in sterile DI water (20 μg/mL), sterile-filtered (0.22 μm), and was added to sterile 96-well plates to reach the desired coating concentrations (0.5, 1 and 3 μg/mm2) before overnight water evaporation at room temperature in sterile conditions. The rBMSCs were thawed and after passage 4 were cultured on the plates (150,000 cells/well, i.e., […]), for the control groups the rBMSCs were cultured (150,000 cells/well) on the uncoated TCT plates and the cell culture medium was changed every second day.
In a separate set of experimental groups, SPPEPS (SEQ ID NO:2) peptide was included in soluble form in the medium instead of being coated on the surface. rBMSCs were cultured on 96-well plates (150,000 cells/well) with cell culture medium containing SPPEPS (SEQ ID NO:2) (50, 100 and 500 ng/ml). The cell culture medium containing the peptide was changed every second day.
rBMSCs were cultured either on TCT plastic plates or on a hydrogel-coated surface. For the cells cultured on TCT plates, three different concentrations of SPPEPS (SEQ ID NO:2) peptide (50, 100 and 500 ng/ml) in cell culture medium, three different coating concentrations (0.5, 1 and 3 μg/mm2) and a control group (no growth factor or peptide in the cell culture medium) were chosen (n=6) and the peptide chondroinductivity was evaluated by rt-PCR after 3 days (see FIGS. 2-4 and gene expression subsection below).
The gene expressions were analyzed for all the rBMSCs samples cultured on the TCT plates after 3 days (n=6) and all the rBMSCs cultured on the hydrogel surface after 3 days (n=4). The gene expressions of each sample were evaluated in triplicate. To prepare the samples for gene expression, the mRNAs were extracted after 3 days using Qiagen RNeasy mini kit (Valencia, CA) following the kit instructions, before reverse transcription using a cDNA kit (Invitrogen, Carlsbad, CA). rt-PCR was performed with a qTOWER^3 Thermal Cycler (Upland. CA) using TaqMan Col2A1, Sox9, ACAN and GAPDH primers (Invitrogen, Carlsbad, CA). GAPDH was used as an endogenous control, with relative gene expression measured using the 2^−ΔΔCt method. For cells on both surfaces, the calibrators were the rBMSCs at passage 4 before transferring them to the 96-well plates.

[3] = 50 ng/ml, 100 ng/ml and 500 ng/ml groups, 3 days
[4] = 100 ng/ml in medium, 3 days, p<0.05
[5] = coating 0.5 μg/mm2, 3 days, p<0.05
[6] = coating 1 μg/mm2, 3 days, p<0.05
[7] = coating 3 μg/mm2, 3 days, p<0.05

Question: How did the “collagen type II gene expression, times higher than in the control group” value [1] turn out when SPPEPS [chondroinductive peptide] was run?
Answer: 2.3 times

Question: What about the “chondroinduction (collagen II gene expression) compared to TGF-β3” value (rBMSC spheroids) of the same substance?
Answer: outperforms TGF-β3

Question: And the “Sox9 gene expression, times higher than coating group” value ([2]; 50 ng/ml in medium vs coating 0.5 μg/mm2)?
Answer: 4.5 times

Question: What about the “Sox9 gene expression, times higher than coating group” value ([2]; 50 ng/ml in medium vs coating 1 μg/mm2) of the same substance?
Answer: 4.9 times

Question: What about the “Sox9 gene expression, times higher than coating group” value ([2]; 50 ng/ml in medium vs coating 3 μg/mm2) of the same substance?
Answer: 5.2 times

Question: And the “aggrecan gene expression higher compared to the control group” value ([2]; 50 ng/ml in medium, 3 days, p<0.05)?
Answer: 34%

Question: What about the “aggrecan gene expression higher than the control group (FIG. 4 legend)” value [2, 3] of the same substance?
Answer: ~35%

Question: What about the “aggrecan gene expression relative to the control group (FIG. 4 legend)” value [2, 3] of the same substance?
Answer: about 1.5 ×

Question: What about the “collagen type II gene expression higher than the control group (FIG. 3 legend)” value ([2]; 100 ng/ml in medium, 3 days) of the same substance?
Answer: 35%

Question: And the “aggrecan gene expression higher compared to the control group” value [2, 4]?
Answer: 35%

Question: And the “collagen type II gene expression, times higher than in the control group” value [2, 4]?
Answer: 1.5 times

Question: What about the “collagen type II gene expression, times higher compared to SPPEPS 50 ng/mL” value ([2]; 100 ng/ml in medium, p<0.05) of the same substance?
Answer: 1.5 times

Question: And the “collagen type II gene expression, times higher compared to SPPEPS 500 ng/mL” value ([2]; 100 ng/ml in medium, p<0.05)?
Answer: 1.6 times

Question: And the “Sox9 gene expression, times higher than coating group” value ([2]; 500 ng/ml in medium vs coating 0.5 μg/mm2)?
Answer: 3.2 times

Question: What about the “Sox9 gene expression, times higher than coating group” value ([2]; 500 ng/ml in medium vs coating 1 μg/mm2) of the same substance?
Answer: 3.4 times

Question: What about the “Sox9 gene expression, times higher than coating group” value ([2]; 500 ng/ml in medium vs coating 3 μg/mm2) of the same substance?
Answer: 3.6 times

Question: And the “aggrecan gene expression higher compared to the control group” value ([2]; 500 ng/ml in medium, 3 days, p<0.05)?
Answer: 31%

Question: And the “Sox9 gene expression: control group times higher than coating group” value [2, 5]?
Answer: 4.0 times

Question: What about the “collagen type II gene expression lower than in the control group” value [2, 5] of the same substance?
Answer: 61%

Question: What about the “Sox9 gene expression: control group times higher than coating group” value [2, 6] of the same substance?
Answer: 4.2 times

Question: What about the “collagen type II gene expression lower than in the control group” value [2, 6] of the same substance?
Answer: 74%

Question: What about the “Sox9 gene expression: control group times higher than coating group” value [2, 7] of the same substance?
Answer: 4.5 times

Question: And the “aggrecan gene expression higher compared to the control group” value [2, 7]?
Answer: 31%

Question: What about the “collagen type II gene expression lower than in the control group” value [2, 7] of the same substance?
Answer: 75%

From patent US12377191B2, “Chondroinductive peptides and compositions and methods of use thereof” (The Board of Regents of the University of Oklahoma, priority 2018, dated 2025)
